Patent US7235536B2, “Cellulose sulfate and other sulfated polysaccharides to prevent and treat papilloma virus infection and other infections” (Rush Presbyterian-St. Luke's Medical Center, priority 2000, dated 2007)
Marks after values point to notes of the source that are not given here.

Key:
Aspergillus niger = assay: Microbial challenge of CS gel; format: cell-based
Description: (§1) 6% CS was prepared in water as a translucent gel. Twenty grams of the gel was placed in a plastic screw-cap centrifuge tube. The microbial inoculants were prepared, gently vortexed and 0.1 ml inoculant was aseptically pipetted into the 20.0 gram gel. This procedure was repeated for each microbial organism. The samples were incubated at room temperature (20-25° C.) for 14 days or 28 days. The microbes tested and their theoretical yields can be found in Table F. After 14 or 28 days incubation, dilutions (10^−1, 10^−2, 10^−3) of the gels were made in saline and 1 ml plated onto Sabouraud dextrose (Aspergillus and Candida) or onto tryptic soy (other microbes). The number of organisms that grew after 3-7 days at room temperature were counted.
(§2) In another study, CS was dissolved in water at the concentrations indicated below. No other ingredients, including preservatives, were added. The gels were challenged with microbes as described above except that the gels were examined for the presence of microbes after 1, 2, 3, 4 and 7 days. The amount of microbes origially inoculated in the gels is also shown below.

Candida albicans = assay: Microbial challenge of CS gel; format: cell-based
Description: as §1, §2

Staphylococcus aureus = assay: Microbial challenge of CS gel; format: cell-based
Description: as §1, §2

Pseudomonas aeruginosa = assay: Microbial challenge of CS gel; format: cell-based
Description: as §1, §2

[1] = CS gel in as low a concentration as 0.6%

Substance: sodium cellulose sulfate
- CS MIC (Fusobacterium nucleatum): >0.625** mg/ml
- Day 14 CFU/g (Aspergillus niger; 6% CS gel, ATCC 16404, room temperature, Day 14): 0 CFU/g
- Day 28 CFU/g (Aspergillus niger; 6% CS gel, ATCC 16404, room temperature, Day 28): 0 CFU/g
- Asperigillus niger CFU (Aspergillus niger; CS 0.06% in water, 24 hours): 0 CFU × 10^5/ml
- Asperigillus niger CFU (Aspergillus niger; CS 0.06% in water, 48 hours): 0 CFU × 10^5/ml
- Asperigillus niger CFU (Aspergillus niger; CS 0.06% in water, 72 hours): 0 CFU × 10^5/ml
- Asperigillus niger CFU (Aspergillus niger; CS 0.06% in water, 96 hours): 0 CFU × 10^5/ml
- Asperigillus niger CFU (Aspergillus niger; CS 0.06% in water, 7 days): 0 CFU × 10^5/ml
- Asperigillus niger CFU (Aspergillus niger; CS 0.6% in water, 24 hours): 0 CFU × 10^5/ml
- Asperigillus niger CFU (Aspergillus niger; CS 0.6% in water, 48 hours): 0 CFU × 10^5/ml
- Asperigillus niger CFU (Aspergillus niger; CS 0.6% in water, 72 hours): 0 CFU × 10^5/ml
- Asperigillus niger CFU (Aspergillus niger; CS 0.6% in water, 96 hours): 0 CFU × 10^5/ml
- Asperigillus niger CFU (Aspergillus niger; CS 0.6% in water, 7 days): 0 CFU × 10^5/ml
- Asperigillus niger CFU (Aspergillus niger; CS 1.2% in water, 24 hours): 0 CFU × 10^5/ml
- Asperigillus niger CFU (Aspergillus niger; CS 1.2% in water, 48 hours): 0 CFU × 10^5/ml
- Asperigillus niger CFU (Aspergillus niger; CS 1.2% in water, 72 hours): 0 CFU × 10^5/ml
- Asperigillus niger CFU (Aspergillus niger; CS 1.2% in water, 96 hours): 0 CFU × 10^5/ml
- Asperigillus niger CFU (Aspergillus niger; CS 1.2% in water, 7 days): 0 CFU × 10^5/ml
- Asperigillus niger CFU (Aspergillus niger; CS 6% in water, 24 hours): 0 CFU × 10^5/ml
- Asperigillus niger CFU (Aspergillus niger; CS 6% in water, 48 hours): 0 CFU × 10^5/ml
- Asperigillus niger CFU (Aspergillus niger; CS 6% in water, 72 hours): 0 CFU × 10^5/ml
- Asperigillus niger CFU (Aspergillus niger; CS 6% in water, 96 hours): 0 CFU × 10^5/ml
- Asperigillus niger CFU (Aspergillus niger; CS 6% in water, 7 days): 0 CFU × 10^5/ml
- inactivation of Asperigillus (Aspergillus niger; [1]): completely inactivated
- Day 14 CFU/g (Candida albicans; 6% CS gel, ATCC 10231, room temperature, Day 14): 0 CFU/g
- Day 28 CFU/g (Candida albicans; 6% CS gel, ATCC 10231, room temperature, Day 28): 0 CFU/g
- Candida albicans CFU (Candida albicans; CS 0.06% in water, 24 hours): 0 CFU × 10^5/ml
- Candida albicans CFU (Candida albicans; CS 0.06% in water, 48 hours): 0 CFU × 10^5/ml
- Candida albicans CFU (Candida albicans; CS 0.06% in water, 72 hours): 0 CFU × 10^5/ml
- Candida albicans CFU (Candida albicans; CS 0.06% in water, 96 hours): 0 CFU × 10^5/ml
- Candida albicans CFU (Candida albicans; CS 0.06% in water, 7 days): 0 CFU × 10^5/ml
- Candida albicans CFU (Candida albicans; CS 0.6% in water, 24 hours): 0 CFU × 10^5/ml
- Candida albicans CFU (Candida albicans; CS 0.6% in water, 48 hours): 0 CFU × 10^5/ml
- Candida albicans CFU (Candida albicans; CS 0.6% in water, 72 hours): 0.62 CFU × 10^5/ml
- Candida albicans CFU (Candida albicans; CS 0.6% in water, 96 hours): 0.655 CFU × 10^5/ml
- Candida albicans CFU (Candida albicans; CS 0.6% in water, 7 days): 0.535 CFU × 10^5/ml
- Candida albicans CFU (Candida albicans; CS 1.2% in water, 24 hours): 0 CFU × 10^5/ml
- Candida albicans CFU (Candida albicans; CS 1.2% in water, 48 hours): 0 CFU × 10^5/ml
- Candida albicans CFU (Candida albicans; CS 1.2% in water, 72 hours): 0 CFU × 10^5/ml
- Candida albicans CFU (Candida albicans; CS 1.2% in water, 96 hours): 0 CFU × 10^5/ml
- Candida albicans CFU (Candida albicans; CS 1.2% in water, 7 days): 0 CFU × 10^5/ml
- Candida albicans CFU (Candida albicans; CS 6% in water, 24 hours): 0 CFU × 10^5/ml
- Candida albicans CFU (Candida albicans; CS 6% in water, 48 hours): 0 CFU × 10^5/ml
- Candida albicans CFU (Candida albicans; CS 6% in water, 72 hours): 0 CFU × 10^5/ml
- Candida albicans CFU (Candida albicans; CS 6% in water, 96 hours): 0 CFU × 10^5/ml
- Candida albicans CFU (Candida albicans; CS 6% in water, 7 days): 0 CFU × 10^5/ml
- inactivation of Candida (Candida albicans; CS gel 1.2 and 6%): Complete inactivation
- inactivation of Candida (Candida albicans; [1]): inactivated
- inactivation of Staphylococcus (Staphylococcus aureus; 0.06% CS gel, slow growth thereafter): initially inactivated most Staphylococcus
- inactivation of Staphyloccus (Staphylococcus aureus; 6% CS gel): completely inactivated
- Day 14 CFU/g (Staphylococcus aureus; 6% CS gel, ATCC 6538, room temperature, Day 14): 0 CFU/g
- Day 28 CFU/g (Staphylococcus aureus; 6% CS gel, ATCC 6538, room temperature, Day 28): 0 CFU/g
- Staphylococcus aureus CFU (Staphylococcus aureus; CS 0.06% in water, 24 hours): 0.625 CFU × 10^5/ml
- Staphylococcus aureus CFU (Staphylococcus aureus; CS 0.06% in water, 48 hours): 0.715 CFU × 10^5/ml
- Staphylococcus aureus CFU (Staphylococcus aureus; CS 0.06% in water, 72 hours): 1.04 CFU × 10^5/ml
- Staphylococcus aureus CFU (Staphylococcus aureus; CS 0.06% in water, 96 hours): 2.06 CFU × 10^5/ml
- Staphylococcus aureus CFU (Staphylococcus aureus; CS 0.06% in water, 7 days): 5.815 CFU × 10^5/ml
- Staphylococcus aureus CFU (Staphylococcus aureus; CS 0.6% in water, 24 hours): 5.17 CFU × 10^5/ml
- Staphylococcus aureus CFU (Staphylococcus aureus; CS 0.6% in water, 48 hours): 5.53 CFU × 10^5/ml
- Staphylococcus aureus CFU (Staphylococcus aureus; CS 0.6% in water, 72 hours): 4.82 CFU × 10^5/ml
- Staphylococcus aureus CFU (Staphylococcus aureus; CS 0.6% in water, 96 hours): 6.41 CFU × 10^5/ml
- Staphylococcus aureus CFU (Staphylococcus aureus; CS 0.6% in water, 7 days): 3.25 CFU × 10^5/ml
- Staphylococcus aureus CFU (Staphylococcus aureus; CS 1.2% in water, 24 hours): 2.71 CFU × 10^5/ml
- Staphylococcus aureus CFU (Staphylococcus aureus; CS 1.2% in water, 48 hours): 4.725 CFU × 10^5/ml
- Staphylococcus aureus CFU (Staphylococcus aureus; CS 1.2% in water, 72 hours): 2.39 CFU × 10^5/ml
- Staphylococcus aureus CFU (Staphylococcus aureus; CS 1.2% in water, 96 hours): 3.96 CFU × 10^5/ml
- Staphylococcus aureus CFU (Staphylococcus aureus; CS 1.2% in water, 7 days): 3.55 CFU × 10^5/ml
- Staphylococcus aureus CFU (Staphylococcus aureus; CS 6% in water, 24 hours): 0 CFU × 10^5/ml
- Staphylococcus aureus CFU (Staphylococcus aureus; CS 6% in water, 48 hours): 0.005 CFU × 10^5/ml
- Staphylococcus aureus CFU (Staphylococcus aureus; CS 6% in water, 72 hours): 0 CFU × 10^5/ml
- Staphylococcus aureus CFU (Staphylococcus aureus; CS 6% in water, 96 hours): 0 CFU × 10^5/ml
- Staphylococcus aureus CFU (Staphylococcus aureus; CS 6% in water, 7 days): 0 CFU × 10^5/ml
- inactivation of Staphyloccus (Staphylococcus aureus; lower CS concentrations): not inactivated but growth was prevented
- inactivation of Pseudomonas (Pseudomonas aeruginosa; 6% CS gel): completely inactivated
- Day 14 CFU/g (Pseudomonas aeruginosa; 6% CS gel, ATCC 9027, room temperature, Day 14): 0 CFU/g
- Day 28 CFU/g (Pseudomonas aeruginosa; 6% CS gel, ATCC 9027, room temperature, Day 28): 0 CFU/g
- Pseudomans aeruginosa CFU (Pseudomonas aeruginosa; CS 0.06% in water, 24 hours): 0 CFU × 10^5/ml
- Pseudomans aeruginosa CFU (Pseudomonas aeruginosa; CS 0.06% in water, 48 hours): 0.48 CFU × 10^5/ml
- Pseudomans aeruginosa CFU (Pseudomonas aeruginosa; CS 0.06% in water, 72 hours): 1.125 CFU × 10^5/ml
- Pseudomans aeruginosa CFU (Pseudomonas aeruginosa; CS 0.06% in water, 96 hours): 1.87 CFU × 10^5/ml
- Pseudomans aeruginosa CFU (Pseudomonas aeruginosa; CS 0.06% in water, 7 days): 2.04 CFU × 10^5/ml
- Pseudomans aeruginosa CFU (Pseudomonas aeruginosa; CS 0.6% in water, 24 hours): 5.43 CFU × 10^5/ml
- Pseudomans aeruginosa CFU (Pseudomonas aeruginosa; CS 0.6% in water, 48 hours): 6.80 CFU × 10^5/ml
- Pseudomans aeruginosa CFU (Pseudomonas aeruginosa; CS 0.6% in water, 72 hours): 4.43 CFU × 10^5/ml
- Pseudomans aeruginosa CFU (Pseudomonas aeruginosa; CS 0.6% in water, 96 hours): 6.92 CFU × 10^5/ml
- Pseudomans aeruginosa CFU (Pseudomonas aeruginosa; CS 0.6% in water, 7 days): 6.05 CFU × 10^5/ml
- Pseudomans aeruginosa CFU (Pseudomonas aeruginosa; CS 1.2% in water, 24 hours): 2.08 CFU × 10^5/ml
- Pseudomans aeruginosa CFU (Pseudomonas aeruginosa; CS 1.2% in water, 48 hours): 2.625 CFU × 10^5/ml
- Pseudomans aeruginosa CFU (Pseudomonas aeruginosa; CS 1.2% in water, 72 hours): 2.31 CFU × 10^5/ml
- Pseudomans aeruginosa CFU (Pseudomonas aeruginosa; CS 1.2% in water, 96 hours): 2.82 CFU × 10^5/ml
- Pseudomans aeruginosa CFU (Pseudomonas aeruginosa; CS 1.2% in water, 7 days): 4.79 CFU × 10^5/ml
- Pseudomans aeruginosa CFU (Pseudomonas aeruginosa; CS 6% in water, 24 hours): 0 CFU × 10^5/ml
- Pseudomans aeruginosa CFU (Pseudomonas aeruginosa; CS 6% in water, 48 hours): 0 CFU × 10^5/ml
- Pseudomans aeruginosa CFU (Pseudomonas aeruginosa; CS 6% in water, 72 hours): 0 CFU × 10^5/ml
- Pseudomans aeruginosa CFU (Pseudomonas aeruginosa; CS 6% in water, 96 hours): 0 CFU × 10^5/ml
- Pseudomans aeruginosa CFU (Pseudomonas aeruginosa; CS 6% in water, 7 days): 0 CFU × 10^5/ml
- inactivation of Pseudomonas (Pseudomonas aeruginosa; lower CS concentrations): not inactivated but growth was prevented
